From ChEMBL document CHEMBL4261496, “Targeting quinolone- and aminocoumarin-resistant bacteria with new gyramide analogs that inhibit DNA gyrase” (Medchemcomm, 2017)
≈ marks a conversion by molar mass, not a printed value. Calls of active or inactive are those of the source. The rule behind the calls is not given here.

Tests used:
Escherichia coli [1] = assay: Antibacterial activity against Escherichia coli JW5503 overexpressing gyrB in absence of IPTG induction after 16 hrs by broth microdilution method; type: functional; settings: JW5503, 16 h
Escherichia coli [2] = assay: Antibacterial activity against ciprofloxacin-resistant Escherichia coli JW5503 harboring GyrA Ser83Leu mutant after 16 to 18 hrs by broth microdilution method; type: functional
Escherichia coli [3] = assay: Antibacterial activity against Escherichia coli JW5503 overexpressing gyrA in absence of IPTG induction after 16 hrs by broth microdilution method; type: functional; settings: JW5503, 16 h
Escherichia coli [4] = assay: Antibacterial activity against Escherichia coli JW5503 overexpressing gyrA/gyrB in absence of IPTG induction after 16 hrs by broth microdilution method; type: functional; settings: JW5503, 16 h
Escherichia coli [5] = assay: Antibacterial activity against Escherichia coli JW5503 overexpressing gyrB in presence of IPTG induction after 16 hrs by broth microdilution method; type: functional; settings: JW5503, 16 h
[6] = target: DNA gyrase (Escherichia coli) (UniProt P0AES6+P0AES4); assay: Inhibition of Escherichia coli DNA gyrase ATPase activity up to 100 uM using DNA as substrate after 60 mins; type: protein-complex assay
Escherichia coli [7] = assay: Antibacterial activity against Escherichia coli JW5503 transfected with empty vector in absence of IPTG induction after 16 hrs by broth microdilution method; type: functional; settings: JW5503, 16 h
Escherichia coli [8] = assay: Antibacterial activity against Escherichia coli JW5503 simultaneously overexpressing gyrA/gyrB in presence of IPTG induction after 16 hrs by broth microdilution method; type: functional, organism-based
Escherichia coli [9] = assay: Antibacterial activity against Escherichia coli transfected with empty vector

O=C(O)c1cn(C2CC2)c2cc(N3CCNCC3)c(F)cc2c1=O [CIPROFLOXACIN] showed an MIC (Escherichia coli [1]) of 2.1 ng/mL (≈ 6.34 nM), an MIC (Escherichia coli [2]) of 6.4 ng/mL (≈ 19.3 nM) and an MIC (Escherichia coli [3]) of 2.1 ng/mL (≈ 6.34 nM). For the same compound, the MIC (Escherichia coli [4]) was 2.1 ng/mL (≈ 6.34 nM), the MIC (Escherichia coli [5]) was 2.1 ng/mL and the inhibition [6] was “inactive”. For the same compound, the MIC (Escherichia coli [7]) was 2.1 ng/mL (≈ 6.34 nM), the Activity (Escherichia coli [8]) was “Active” and the MIC (Escherichia coli [9]) was 9 ng/mL (≈ 27.2 nM).
